The results in this text go back to PubChem BioAssay AID328 (DTP/NCI, 2004).

For this assay, the system named is BDF1 mice, P388 leukemia ip, median survival T/C. Kind of assay: NCI In Vivo Anticancer Drug Screen. Data for tumor model P388 Leukemia (intraperitoneal) in B6D2F1 (BDF1) mice. The following applies: endpoint: median survival time, higher = longer survival. The essentials:
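Compound-treated tumour-bearing mice were compared with vehicle-treated controls. Survival was recorded, and the value is the treated-group measurement divided by the control-group measurement (T/C).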

[1] abbreviates: dose: 100.0 mg/kg/injection, schedule: Q04DX003 (ip), vehicle: saline.
[2] abbreviates: dose: 100.0 mg/kg/injection, schedule: Q04DX003 (ip), vehicle: saline with Tween-80.
Setting [3] is: dose: 200.0 mg/kg/injection, schedule: Q04DX003 (ip), vehicle: saline with Tween-80.
The mark [4] stands for this setting: dose: 400.0 mg/kg/injection, schedule: Q04DX003 (ip), vehicle: saline with Tween-80.
[5] abbreviates: dose: 50.0 mg/kg/injection, schedule: Q04DX003 (ip), vehicle: saline with Tween-80.
The mark [6] stands for this setting: dose: 100.0 mg/kg/injection, schedule: Q01DX009 (ip), vehicle: Klucel (hydroxypropylcellulose) (HPC).
[7] abbreviates: dose: 100.0 mg/kg/injection, schedule: Q04DX003 (ip), vehicle: Klucel (hydroxypropylcellulose) (HPC).
[8] abbreviates: dose: 200.0 mg/kg/injection, schedule: Q01DX009 (ip), vehicle: Klucel (hydroxypropylcellulose) (HPC).
Where [9] appears, read: dose: 25.0 mg/kg/injection, schedule: Q01DX009 (ip), vehicle: Klucel (hydroxypropylcellulose) (HPC).
The mark [10] stands for this setting: dose: 50.0 mg/kg/injection, schedule: Q04DX003 (ip), vehicle: Klucel (hydroxypropylcellulose) (HPC).
Where [11] appears, read: dose: 25.0 mg/kg/injection, schedule: Q01DX009 (ip), vehicle: saline.
Where [12] appears, read: dose: 50.0 mg/kg/injection, schedule: Q01DX009 (ip), vehicle: saline.
The mark [13] stands for this setting: dose: 100.0 mg/kg/injection, schedule: Q01DX009 (ip), vehicle: saline.

Values joined by “and” are separate entries in the source; they are usually repeats but may differ in a detail not shown here. Equal values may be shown once. Inconclusive results and toxic doses are left out.

Consider `C[n+]1csc(=S)[nH]1`, for which the T/C is 86 % of control (dose: 25.0 mg/kg/injection, schedule: Q04DX003 (ip), vehicle: saline); 95 % of control (dose: 50.0 mg/kg/injection, schedule: Q04DX003 (ip), vehicle: saline); 100 % of control under setting [1].
`O=C(NCc1cnccn1)c1ccccc1Cl`: the T/C under setting [2] is 92 % of control, the T/C under setting [3] is 104 % of control and the T/C under setting [4] was 100 % of control.
For the compound `O=[N+]([O-])c1ccc(N2CCCC2)c2c1no[n+]2[O-]`, the T/C under setting [5] is 101 % of control, the T/C under setting [2] was 101 % of control and the T/C under setting [3] was 108 % of control.
Turning to `C1=CCC(COC(c2ccccc2)(c2ccccc2)c2ccccc2)C(COC(c2ccccc2)(c2ccccc2)c2ccccc2)C1` (stereo not drawn), the T/C is 93 % of control (dose: 100.0 mg/kg/injection, schedule: Q01DX001 (ip), vehicle: saline with Tween-80); 96 % of control (dose: 200.0 mg/kg/injection, schedule: Q01DX001 (ip), vehicle: saline with Tween-80); 88 % of control (dose: 400.0 mg/kg/injection, schedule: Q01DX001 (ip), vehicle: saline with Tween-80).
For the compound `CN(C)CCSC1=CC(=O)c2ccccc2C1=O`, the T/C by setting is: (dose: 0.19 mg/kg/injection, schedule: Q01DX009 (ip), vehicle: water) 116 % of control; (dose: 0.19 mg/kg/injection, schedule: Q04DX003 (ip), vehicle: water) 95 % of control; (dose: 0.39 mg/kg/injection, schedule: Q01DX009 (ip), vehicle: water) 109 % of control; (dose: 0.39 mg/kg/injection, schedule: Q04DX003 (ip), vehicle: water) 105 % of control; (dose: 0.78 mg/kg/injection, schedule: Q01DX009 (ip), vehicle: water) 110 % of control; (dose: 0.78 mg/kg/injection, schedule: Q04DX003 (ip), vehicle: water) 104 % of control. Besides, the T/C (dose: 1.56 mg/kg/injection, schedule: Q01DX009 (ip), vehicle: water) was 109 % of control; the T/C (dose: 1.56 mg/kg/injection, schedule: Q04DX003 (ip), vehicle: water) was 106 % of control; the T/C (dose: 3.12 mg/kg/injection, schedule: Q04DX003 (ip), vehicle: water) was 95 % of control.
On to `CC1(C)Oc2cc3oc(C(=O)O)cc(=O)c3cc2-c2ccc(O)cc21`, for which the T/C (dose: 100.0 mg/kg/injection, schedule: Q04DX002 (ip), vehicle: saline with Tween-80) was 119 % of control; the T/C (dose: 200.0 mg/kg/injection, schedule: Q04DX002 (ip), vehicle: saline with Tween-80) is 107 % of control; the T/C (dose: 400.0 mg/kg/injection, schedule: Q04DX002 (ip), vehicle: saline with Tween-80) was 108 % of control.
For `CN(C(=O)N(C)c1ccccc1)c1ccccc1`, the T/C was 100 % of control under setting [6]; 91 % of control under setting [7]; 90 % of control under setting [8]; 91 % of control (dose: 200.0 mg/kg/injection, schedule: Q04DX003 (ip), vehicle: Klucel (hydroxypropylcellulose) (HPC)); 100 % of control (dose: 400.0 mg/kg/injection, schedule: Q01DX009 (ip), vehicle: Klucel (hydroxypropylcellulose) (HPC)); 87 % of control (dose: 400.0 mg/kg/injection, schedule: Q04DX003 (ip), vehicle: Klucel (hydroxypropylcellulose) (HPC)).
`C=CC(CN1CC1)OC(C)=O` (stereo not drawn): the T/C by setting is: (dose: 2.0 mg/kg/injection, schedule: Q01DX010 (ip), vehicle: saline) 112 % of control; (dose: 4.0 mg/kg/injection, schedule: Q01DX010 (ip), vehicle: saline) 163 % of control; (dose: 8.0 mg/kg/injection, schedule: Q01DX010 (ip), vehicle: saline) 181 % of control; (dose: 16.0 mg/kg/injection, schedule: Q01DX010 (ip), vehicle: saline) 166 % of control.
Turning to `Cc1cccc(CSc2ncnc3nc[nH]c23)n1`, the T/C reads like this: under setting [9], 100 % of control; (dose: 25.0 mg/kg/injection, schedule: Q04DX003 (ip), vehicle: Klucel (hydroxypropylcellulose) (HPC)) 104 % of control; (dose: 50.0 mg/kg/injection, schedule: Q01DX009 (ip), vehicle: Klucel (hydroxypropylcellulose) (HPC)) 87 % of control; under setting [10], 100 % of control; under setting [6], 91 % of control; under setting [7], 92 % of control and 104 % of control.
As for `COc1cc(NC(C)CCCN)c2nccc(C)c2c1` (stereo not drawn), the T/C by setting is: (dose: 12.5 mg/kg/injection, schedule: Q01DX009 (ip), vehicle: saline) 101 % of control; under setting [11], 101 % of control; under setting [12], 90 % of control and 107 % of control; under setting [13], 88 % of control.
In the case of `C=CC[N+](C)(CC=C)CC[N+](C)(CC=C)CC=C`, the T/C by setting is: (dose: 50.0 mg/kg/injection, schedule: Q01DX009 (ip), vehicle: water) 95 % of control; (dose: 50.0 mg/kg/injection, schedule: Q04DX003 (ip), vehicle: water) 109 % of control; (dose: 100.0 mg/kg/injection, schedule: Q01DX009 (ip), vehicle: water) 104 % of control; (dose: 100.0 mg/kg/injection, schedule: Q04DX003 (ip), vehicle: water) 104 % of control; (dose: 150.0 mg/kg/injection, schedule: Q01DX009 (ip), vehicle: water) 95 % of control.
As for `CCCC1CC(C(=O)NC(C(C)Cl)C2OC(SC)C(O)C(O)C2O)N(C)C1` (stereo not drawn), the T/C runs as follows: under setting [12], 100 % of control; under setting [13], 94 % of control; (dose: 200.0 mg/kg/injection, schedule: Q01DX009 (ip), vehicle: saline) 102 % of control.
For `Nc1ccc2cc3ccc(N)cc3nc2c1`, the T/C under setting [11] is 86 % of control.
On to `O=C1C(Cl)=C(N2CCOCC2)C(=O)c2ccccc21`, for which the T/C was 118 % of control (dose: 6.25 mg/kg/injection, schedule: Q01DX009 (ip), vehicle: Klucel (hydroxypropylcellulose) (HPC)); 108 % of control (dose: 12.5 mg/kg/injection, schedule: Q01DX009 (ip), vehicle: Klucel (hydroxypropylcellulose) (HPC)); 114 % of control under setting [9].
In the case of `O=C(O)c1ccc(=O)oc1`, the T/C is, setting by setting: (dose: 12.5 mg/kg/injection, schedule: Q01DX009 (ip), vehicle: saline with Tween-80) 108 % of control; (dose: 25.0 mg/kg/injection, schedule: Q01DX009 (ip), vehicle: saline with Tween-80) 99 % of control and 100 % of control; (dose: 50.0 mg/kg/injection, schedule: Q01DX009 (ip), vehicle: saline with Tween-80) 108 % of control; (dose: 100.0 mg/kg/injection, schedule: Q01DX009 (ip), vehicle: saline with Tween-80) 124 % of control; (dose: 200.0 mg/kg/injection, schedule: Q01DX009 (ip), vehicle: saline with Tween-80) 124 % of control.
On to `O=C(O)c1ccccc1C(=O)Nc1cc(Cl)ccc1Cl`, for which the T/C is 91 % of control under setting [10] and 100 % of control under setting [7].
`Cc1cc2c3ccccc3ncn2n1`: the T/C was 100 % of control (dose: 100.0 mg/kg/injection, schedule: Q01DX001 (ip), vehicle: saline); 100 % of control under setting [6]; 100 % of control under setting [1]; 108 % of control (dose: 200.0 mg/kg/injection, schedule: Q01DX001 (ip), vehicle: saline); 108 % of control under setting [8]; 100 % of control (dose: 200.0 mg/kg/injection, schedule: Q04DX003 (ip), vehicle: saline). Also, the T/C (dose: 400.0 mg/kg/injection, schedule: Q04DX003 (ip), vehicle: saline) was 100 % of control.
With `O=C(O)c1cc(S(=O)(=O)F)cc(S(=O)(=O)F)c1`, the T/C (dose: 25.0 mg/kg/injection, schedule: Q01DX009 (ip), vehicle: alcohol) was 113 % of control; the T/C (dose: 33.0 mg/kg/injection, schedule: Q01DX009 (ip), vehicle: alcohol) was 116 % of control; the T/C (dose: 50.0 mg/kg/injection, schedule: Q01DX009 (ip), vehicle: alcohol) was 112 % of control.
Regarding `O=C(O)CC/C(=N\O)c1cccc([N+](=O)[O-])c1`, the T/C under setting [2] is 100 % of control, the T/C under setting [3] is 100 % of control and the T/C under setting [4] is 95 % of control.
As to `CCCCNCCC(SS)c1ccc(Cl)cc1` (stereo not drawn), the T/C under setting [5] is 104 % of control and the T/C under setting [2] is 100 % of control.
